# Source: patent US12466863B2, “Nuclear reprogramming factor and induced pluripotent stem cells” (Kyoto University, priority 2005, dated 2025)
# Tests used:
# [1] = test system: MEFs with Nanog-EGFP-IRES-Puro; test: GFP-positive colonies from Nanog-EGFP-IRES-Puro MEFs after 4-factor transduction and puromycin selection; assay type: cell-based, mouse; details: PD98059 25 μM continuously from the next day of retroviral transfection; 4 factors; 8% without PD98059
# Source text: Studies were made as to whether iPS cells could be established with a reporter other than Fbx15-βgeo. Escherichia coli artificial chromosome (BAC) containing the Nanog gene in the center was isolated, and then the GFP gene and the puromycin resistance gene were knocked in by recombination in E. coli (FIG. 12A). Subsequently, the above modified BAC was introduced into ES cells to confirm that the cells became GFP-positive in an undifferentiated state specific manner (data not shown). Then, these ES cells were transplanted in mouse blastocysts to create transgenic mice via chimeric mice. In these mice, GFP-positive cells were specifically observed in inner cell masses of the blastocysts or gonads of embryos at 13.5 days after fertilization (FIG. 12B). The gonads were removed from the embryos at 13.5 days after fertilization (hybrid of DBA, 129, and C57BL/6 mice), and MEFs were isolated. The isolated MEFs were confirmed to be GFP-negative (FIG. 13) by flow cytometry. These MEFs were retrovirally transduced with the 4 factors and subjected to puromycin selection, and as a result, a plural, number of resistant colonies were obtained. Only about 10 to 20% of the colonies were GFP-positive. When the GFP-positive colonies were passaged, they gave morphology (FIG. 14) and proliferation (FIG. 15) similar to those of ES cells. […]
# [2] = test system: MEFs derived from the Fbx15^βgeo/βgeo mouse; test: Effect of cytokine (bFGF- or SCF-producing STO feeder cells) on iPS cell establishment; assay type: cell-based; details: no colony on normal STO cells
# Source text: An effect of cytokine on iPS cell establishment was investigated. Expression vector (pMX retroviral vector) for basic fibroblast growth factor (bFGF) or stem cell factor (SCF) was transduced into feeder cells (STO cells) to establish cells permanently expressing the cytokines. […] As a result, the number of formed colonies increased 20 times or higher on the STO cells producing bFGF (FIG. 11) or SCF (data not shown), as compared with the culture on normal STO cells.
Molecule,percentage of GFP-positive colonies [1] [%],iPS cell colony formation with the 3 factors other than c-Myc [2]
COc1cccc(-c2cc(=O)c3ccccc3o2)c1N [PD98059],45,–
SCF: cytokine produced by STO feeder cells transduced with pMX expression vector,–,colony formation was observed
bFGF: cytokine produced by STO feeder cells transduced with pMX expression vector,–,colony formation was observed
